How the values were obtained:
[1] = test system: T1, benzoquinone reductase (BQR), Pospl1|124517; assay: NADPH consumption during […],6-DMBQ reduction; format: cell-based, Rhodonia placenta; settings: 30–570 µM 2,6-DMBQ; NADPH co-substrate; FMN cofactor; crude cell-free mixture
T1 construct: synthetic CDS in pEU-E01-MCS, wheat germ cell-free expression, crude translation mixture (sample S2), predicted 25 kDa, intracellular, no tag stated

[2] = test system: T2, heme-thiolate peroxidase (HTP), Pospl1|61079; assay: ABTS oxidation with H2O2; format: cell-based, Rhodonia placenta; settings: 50–900 µM ABTS; H2O2 as oxidant; crude cell-free mixture with hemin and nanodiscs
T2 construct: synthetic CDS in pEU-E01-MCS, wheat germ cell-free expression with nanodiscs and hemin (S1b), crude mixture, predicted 32 kDa
Experimental: ABTS oxidation with H2O2 on heme-thiolate peroxidase (HTP), Pospl1|61079 | Km and Vmax values for enzymes HTP, ABF, BQR, and FRD were determined

Row | Compound | Km [1] [µM] | Km [2] [µM]
1 | COC1=CC(=O)C=C(OC)C1=O [2,6-DMBQ, 2,6-dimethoxy-1,4-benzoquinone] | 214 | –
2 | CCn1c(=NN=c2sc3cc(S(=O)(=O)O)ccc3n2CC)sc2cc(S(=O)(=O)O)ccc21 [ABTS] | – | 142

Reference: paper PMC11205865, “Unlocking the distinctive enzymatic functions of the early plant biomass deconstructive genes in a brown rot fungus by cell-free protein expression” (Applied and Environmental Microbiology, 2024)
